Test results from EP0570112A1, “Cycloalkane derivatives” (ZENECA LIMITED, priority 1992, dated 1993).

Target: T1, 5-LO (Homo sapiens, UniProt P09917)
T1 construct: incubating a test compound with heparinised human blood, prior to challenge with the calcium ionophore A23187; endogenous in cells; host or cells: blood cells of heparinised human whole blood
T1 sequence (P09917 1-674): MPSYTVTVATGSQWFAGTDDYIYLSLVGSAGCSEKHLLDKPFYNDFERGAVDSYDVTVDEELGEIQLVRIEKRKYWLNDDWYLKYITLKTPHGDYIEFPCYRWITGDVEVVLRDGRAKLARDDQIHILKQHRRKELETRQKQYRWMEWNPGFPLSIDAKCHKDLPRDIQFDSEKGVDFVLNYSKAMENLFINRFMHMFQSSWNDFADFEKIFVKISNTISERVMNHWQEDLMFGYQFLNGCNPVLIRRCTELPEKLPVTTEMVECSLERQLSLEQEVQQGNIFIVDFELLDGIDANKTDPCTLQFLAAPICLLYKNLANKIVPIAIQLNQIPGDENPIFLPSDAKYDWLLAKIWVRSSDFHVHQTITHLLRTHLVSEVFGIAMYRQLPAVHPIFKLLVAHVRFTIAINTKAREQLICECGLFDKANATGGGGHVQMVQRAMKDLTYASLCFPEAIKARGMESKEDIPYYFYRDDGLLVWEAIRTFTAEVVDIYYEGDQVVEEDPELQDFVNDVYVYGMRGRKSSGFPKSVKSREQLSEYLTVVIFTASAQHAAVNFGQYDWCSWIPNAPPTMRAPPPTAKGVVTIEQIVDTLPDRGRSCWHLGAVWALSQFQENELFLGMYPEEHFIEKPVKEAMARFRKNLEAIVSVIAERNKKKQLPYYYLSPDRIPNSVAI
Assay: Test a): in vitro heparinised human blood challenged with calcium ionophore A23187, radioimmunoassay of LTB4
Type: cell-based
Settings: A23187 challenge, read-out: IC₅₀ against LTB₄
Source text: As stated previously, the compounds of the formula I are inhibitors of the enzyme 5-LO. […] J. Pharmacol. 1985, 84, 34P) which involve the use of a protein-LTB₄ conjugate produced using the procedure of Young et alia (Prostaglandins, 1983, 26(4), 605-613). The effects of a test compound on the enzyme cyclooxygenase (which is involved in the alternative metabolic pathway for arachidonic acid and gives rise to prostaglandins, thromboxanes and related metabolites) may be measured at the same time using the specific radioimmunoassay for thromboxane B₂(TxB₂) described by Carey and Forder (see above). This test provides an indication of the effects of a test compound against 5-LO and also cyclooxygenase in the presence of blood cells and proteins. It permits the selectivity of the inhibitory effect on 5-LO or cyclooxygenase to be assessed. • b) An ex vivo assay system, which is a variation of test a) above, involving administration to a group of rats of a test compound (usually orally as the suspension produced when a solution of the test compound in dimethylsulphoxide is added to carboxymethylcellulose), blood collection, heparinisation, challenge with A23187 and radioimmunoassay of LTB₄ and TxB₂. […]

Row | SMILES | IC50
1 | COC1(OC)CC[C@H](C)[C@H](c2cccc(OCc3ccc4c(ccc(=O)n4C)c3)c2)C1 (racemic) [Example 4, (3RS,4SR)-1,1-dimethoxy-4-methyl-3-[3-(1-methyl-2-oxo-1,2-dihydroquinolin-6-ylmethoxy)phenyl]cyclohexane] | 0.04 µM
2 | COC1CCC(C)C(c2cccc(OCc3ccc4c(ccc(=O)n4C)c3)c2)C1 (centres unmarked) [Example 2, 1-methoxy-4-methyl-3-[3-(1-methyl-2-oxo-1,2-dihydroquinolin-6-ylmethoxy)phenyl]cyclohexane] | 0.39 µM
